Results reported in US12624023B2, “Sulfonylurea derivatives and uses thereof” (NodThera Limited, priority 2019, dated 2026).

Experiments:
[1] = system: IL-1β release upon NLRP3 activation in peripheral blood mononuclear cells (PBMC); test: PBMC IC50 determination assay (IL-1β release, LPS priming + ATP stimulation, HTRF); type: cell-based; conditions: PBMC from buffy coats; LPS 1 μg/ml 3 h, compound 30 min, ATP 5 mM 1 h; IL-1β by HTRF
Summary of the method: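 Buffy-coat PBMC were primed with LPS (1 μg/ml) for 3 h, given compound for 30 min, then stimulated with 5 mM ATP for 1 h. IL-1β released into the medium was quantified by HTRF, reading 655 and 620 nm.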

[2] = system: IL-1β release upon NLRP3 activation in human whole blood; test: Whole blood (WB) assay (IL-1β release, LPS priming + ATP stimulation, HTRF); type: cell-based; conditions: heparin, diluted 9:5 with media, LPS 1 μg/ml 3 h, compound 30 min, ATP 5 mM 1 h, IL-1β by HTRF
Summary of the method: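 Heparinised human whole blood, diluted 9:5 in medium, was primed with LPS (1 μg/ml final) for 3 h. Compound was then added for 30 min, followed by ATP (5 mM final) for 1 h. Secreted IL-1β was measured in the media by HTRF (655/620 nm).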

SMILES	IC50 [2]	IC50 [1]
Cc1sc2c(c1NC(=O)NS(=O)(=O)N(c1cnn(C)c1)[C@H]1CCN(C)C1)CCC2 [Compound 125, 1-[(1-Methyl-1H-pyrazol-4-yl)[(3S)-1-methylpyrrolidin-3-yl]sulfamoyl]-3-{2-methyl-4H,5H,6H-cyclopenta[b]thiophen-3-yl}urea]	< 1 µM	< 0.1 µM
CC(C)c1cc(NC(=O)NS(=O)(=O)N(c2cnn(C)c2)[C@@H]2C[C@@H](F)CN(C)C2)c(C(C)C)s1 [Compound 82, 3-[2,5-Bis(propan-2-yl)thiophen-3-yl]-1-{[(3R,5R)-5-fluoro-1-methylpiperidin-3-yl](1-methyl-1H-pyrazol-4-yl)sulfamoyl}urea]	1 to 3 µM	< 0.1 µM
CC(C)c1cc(NC(=O)NS(=O)(=O)N(c2cnn(C)c2)[C@H]2C[C@H](F)CN(C)C2)c(C(C)C)s1 [Compound 92, 3-[2,5-Bis(propan-2-yl)thiophen-3-yl]-1-{[(3S,5S)-5-fluoro-1-methylpiperidin-3-yl](1-methyl-1H-pyrazol-4-yl)sulfamoyl}urea]	< 1 µM	< 0.1 µM
Cc1csc(C)c1NC(=O)NS(=O)(=O)N(c1cnn(C)c1)C1CCOCC1 [Compound 1, 3-(2,4-Dimethylthiophen-3-yl)-1-[(1-methyl-1H-pyrazol-4-yl)(oxan-4-yl)-sulfamoyl]urea]	3 to 10 µM	1 to 5 µM
Cc1sc(C)c(NC(=O)NS(=O)(=O)N(c2cnn(C)c2)C2CCCN(C)C2)c1C (centres unmarked) [Compound 15, 1-[(1-Methyl-1H-pyrazol-4-yl)(1-methylpiperidin-3-yl)sulfamoyl]-3-(2,4,5-trimethylthiophen-3-yl)urea]	> 20 µM	0.5 to 1 µM
CCc1cc(NC(=O)NS(=O)(=O)N(C2CCOC2)C2CCCN(C)C2)c(CC)s1 (centres unmarked) [Compound 69, 3-(2,5-Diethylthiophen-3-yl)-1-[(1-methylpiperidin-3-yl)(oxolan-3-yl)-sulfamoyl]urea]	> 20 µM	> 10 µM
CCc1cc(NC(=O)NS(=O)(=O)N(c2cnn(C)c2)C2CCCN(C)C2)c(CC)o1 (centres unmarked) [Compound 28, 3-(2,5-Diethylfuran-3-yl)-1-[(1-methyl-1H-pyrazol-4-yl)(1-methylpiperidin-3-yl)sulfamoyl]urea]	1 to 3 µM	0.1 to 0.5 µM
COc1sc2c(c1NC(=O)NS(=O)(=O)N(c1cnn(C)c1)C1CCCN(C)C1)CCC2 (centres unmarked) [Compound 102, 3-{2-Methoxy-4H,5H,6H-cyclopenta[b]thiophen-3-yl}-1-[(1-methyl-1H-pyrazol-4-yl)(1-methylpiperidin-3-yl)sulfamoyl]urea]	1 to 3 µM	0.1 to 0.5 µM
CCc1oc2c(c1NC(=O)NS(=O)(=O)N(c1cnn(C)c1)C1CCCN(C)C1)CCCC2 (centres unmarked) [Compound 94, 3-(2-Ethyl-4,5,6,7-tetrahydro-1-benzofuran-3-yl)-1-[(1-methyl-1H-pyrazol-4-yl)(1-methylpiperidin-3-yl)sulfamoyl]urea]	< 1 µM	0.1 to 0.5 µM
Cc1sc2c(c1NC(=O)NS(=O)(=O)N(c1cnn(C3CC3)c1F)C1CCCN(C)C1)CCC2 (centres unmarked) [Compound 113, 1-[(1-Cyclopropyl-5-fluoro-1H-pyrazol-4-yl)(1-methylpiperidin-3-yl)sulfamoyl]-3-{2-methyl-4H,5H,6H-cyclopenta[b]thiophen-3-yl}urea]	< 1 µM	< 0.1 µM
CN1CCCC(N(c2cnn(C)c2)S(=O)(=O)NC(=O)Nc2c(C(F)(F)F)sc3c2CCC3)C1 (centres unmarked) [Compound 98, 1-[(1-Methyl-1H-pyrazol-4-yl)(1-methylpiperidin-3-yl)sulfamoyl]-3-[2-(trifluoromethyl)-4H,5H,6H-cyclopenta[b]thiophen-3-yl]urea]	1 to 3 µM	0.1 to 0.5 µM
Cc1sc2c(c1NC(=O)NS(=O)(=O)N(c1cnn(C)c1F)C1CCN(C)CC1)CCC2 [Compound 120, 1-[(5-Fluoro-1-methyl-1H-pyrazol-4-yl)(1-methylpiperidin-4-yl)sulfamoyl]-3-{2-methyl-4H,5H,6H-cyclopenta[b]thiophen-3-yl}urea]	1 to 3 µM	< 0.1 µM
CC(C)c1cc(NC(=O)NS(=O)(=O)N(c2cnn(C)c2)[C@@H]2C[C@H](F)CN(C)C2)c(C(C)C)s1 [Compound 76, 3-[2,5-Bis(propan-2-yl)thiophen-3-yl]-1-{[(3R,5S)-5-fluoro-1-methylpiperidin-3-yl](1-methyl-1H-pyrazol-4-yl)sulfamoyl}urea]	3 to 10 µM	0.1 to 0.5 µM
CCc1cc(NC(=O)NS(=O)(=O)N(CCN(C)C)c2cnn(C(C)C)c2)c(CC)o1 [Compound 64, 3-(2,5-Diethylfuran-3-yl)-1-{[2-(dimethylamino)ethyl][1-(propan-2-yl)-1H-pyrazol-4-yl]sulfamoyl}urea]	10 to 20 µM	1 to 5 µM

Second part, led by results:

IC50 [2]	SMILES	IC50 [1]
< 1 µM	CC(C)c1cc(NC(=O)NS(=O)(=O)N(c2cnn(C(C)C)c2)[C@@H]2CCCN(C)C2)c(C(C)C)s1 [Compound 55, 3-[2,5-Bis(propan-2-yl)thiophen-3-yl]-1-{[(3R)-1-methylpiperidin-3-yl][1-(propan-2-yl)-1H-pyrazol-4-yl]sulfamoyl}urea]	< 0.1 µM
< 1 µM	CC(C)c1cc(NC(=O)NS(=O)(=O)N(c2cnn(C)c2)C2CCN(C)CC2)c(C(C)C)s1 [Compound 43, 3-[2,5-Bis(propan-2-yl)thiophen-3-yl]-1-[(1-methyl-1H-pyrazol-4-yl)(1-methyl-piperidin-4-yl)sulfamoyl]urea]	< 0.1 µM
1 to 3 µM	Cc1sc(C(C)C)cc1NC(=O)NS(=O)(=O)N(c1cnn(C)c1)[C@H]1CCCN(C)C1 [Compound 90, 1-[(1-Methyl-1H-pyrazol-4-yl)[(3S)-1-methylpiperidin-3-yl]sulfamoyl]-3-[2-methyl-5-(propan-2-yl)thiophen-3-yl]urea]	0.1 to 0.5 µM
< 1 µM	Cc1cc(NC(=O)NS(=O)(=O)N(c2cnn(C3CC3)c2)[C@H]2CCCN(C)C2)c(C(C)C)s1 [Compound 103, 1-[(1-Cyclopropyl-1H-pyrazol-4-yl)[(3S)-1-methylpiperidin-3-yl]sulfamoyl]-3-[5-methyl-2-(propan-2-yl)thiophen-3-yl]urea]	< 0.1 µM
3 to 10 µM	CC(C)c1cc(NC(=O)NS(=O)(=O)N(c2cnn(C)c2)C2CCCN(C)C2)c(C(F)(F)F)s1 (centres unmarked) [Compound 121, 1-[(1-Methyl-1H-pyrazol-4-yl)(1-methylpiperidin-3-yl)sulfamoyl]-3-[5-(propan-2-yl)-2-(trifluoromethyl)thiophen-3-yl]urea]	0.1 to 0.5 µM
< 1 µM	CC(C)c1sc2c(c1NC(=O)NS(=O)(=O)N(c1cnn(C)c1)[C@H]1CCCN(C)C1)CCC2 [Compound 85, 1-[(1-Methyl-1H-pyrazol-4-yl)[(3S)-1-methylpiperidin-3-yl]sulfamoyl]-3-[2-(propan-2-yl)-4H,5H,6H-cyclopenta[b]thiophen-3-yl]urea]	< 0.1 µM
< 1 µM	CC(C)c1cc(NC(=O)NS(=O)(=O)N(c2cnn(C(C)C)c2)[C@H]2CCCN(C)C2)c(C(C)C)s1 [Compound 84, 3-[2,5-Bis(propan-2-yl)thiophen-3-yl]-1-{[(3S)-1-methylpiperidin-3-yl][1-(propan-2-yl)-1H-pyrazol-4-yl]sulfamoyl}urea]	< 0.1 µM
< 1 µM	CC(C)c1sc(Cl)cc1NC(=O)NS(=O)(=O)N(c1cnn(C)c1)[C@@H]1CCCN(C)C1 [Compound 60, 3-[5-Chloro-2-(propan-2-yl)thiophen-3-yl]-1-[(1-methyl-1H-pyrazol-4-yl)-[(3R)-1-methylpiperidin-3-yl]sulfamoyl]urea]	< 0.1 µM
< 1 µM	CC(C)c1sc2c(c1NC(=O)NS(=O)(=O)N(c1cnn(C)c1)[C@@H]1CCCN(C)C1)CCC2 [Compound 70, 1-[(1-Methyl-1H-pyrazol-4-yl)[(3R)-1-methylpiperidin-3-yl]sulfamoyl]-3-[2-(propan-2-yl)-4H,5H,6H-cyclopenta[b]thiophen-3-yl]urea]	0.1 to 0.5 µM
< 1 µM	CCc1sc(C(C)C)cc1NC(=O)NS(=O)(=O)N(c1cnn(C)c1)[C@@H]1CCCN(C)C1 [Compound 58, 3-[2-Ethyl-5-(propan-2-yl)thiophen-3-yl]-1-[(1-methyl-1H-pyrazol-4-yl)[(3R)-1-methylpiperidin-3-yl]sulfamoyl]urea]	< 0.1 µM
3 to 10 µM	CC(C)c1sc(C#N)cc1NC(=O)NS(=O)(=O)N(c1cnn(C)c1)C1CCCN(C)C1 (centres unmarked) [Compound 131, 3-[5-Cyano-2-(propan-2-yl)thiophen-3-yl]-1-[(1-methyl-1H-pyrazol-4-yl)(1-methylpiperidin-3-yl)sulfamoyl]urea]	0.5 to 1 µM
1 to 3 µM	CC(C)c1cc(NC(=O)NS(=O)(=O)N(c2cnn(C3CC3)c2)[C@@H]2CCCN(C)C2)c(C(C)C)s1 [Compound 59, 3-[2,5-Bis(propan-2-yl)thiophen-3-yl]-1-[(1-cyclopropyl-1H-pyrazol-4-yl)-[(3R)-1-methylpiperidin-3-yl]sulfamoyl]urea]	< 0.1 µM
1 to 3 µM	CCc1cc(NC(=O)NS(=O)(=O)N(c2cnn(C(C)C)c2)[C@H]2CCCN(C)C2)c(CC)o1 [Compound 87, 3-(2,5-Diethylfuran-3-yl)-1-{[(3S)-1-methylpiperidin-3-yl][1-(propan-2-yl)-1H-pyrazol-4-yl]sulfamoyl}urea]	0.1 to 0.5 µM
< 1 µM	Cc1cc(NC(=O)NS(=O)(=O)N(c2cnn(C)c2)[C@H]2CCCN(C)C2)c(C(C)C)s1 [Compound 81, 1-[(1-Methyl-1H-pyrazol-4-yl)[(3S)-1-methylpiperidin-3-yl]sulfamoyl]-3-[5-methyl-2-(propan-2-yl)thiophen-3-yl]urea]	< 0.1 µM
